One data set concerns N. fowleri trophozoites. Nature of the data set: Amoebicidal assay against N. fowleri trophozoites (Trypan blue). The data set is classed as cell-based, Naegleria fowleri. As to conditions: for minimal effective concentration / EC50: Naegleria fowleri; for minimal effective concentration: read-out: Lowest concentration showing significant amoebicidal activity against N. fowleri; for EC50: read-out: Half maximal effective concentration (EC50), N. fowleri; for Amoebicidal activity against N. fowleri: summary in discussion, concentration not given. The procedure: (§1) Amoebicidal assays were performed as previously described. Briefly, 5 × 10^5 amoebae (N. fowleri and B. mandrillaris cells) were incubated with drugs and/or solvents in 24-well plates in RPMI-1640. Amoebae were incubated with RPMI-1640 for negative controls while DMSO and ethanol were used as solvent control. For the positive control, the anti-amoebic drug, 100 μM miltefosine was used. Plates were incubated at 37 °C and 5% CO2 for 24 h. Next, 0.1% Trypan blue was added to each well. […] The number of live cells (i.e., unstained) was counted using a haemocytometer to determine amoebicidal effects of various compounds. The data are representative of the mean ± standard error of several experiments performed in duplicate.
Figure 1 The amoebicidal activities of compounds against N. fowleri trophozoites. N. fowleri trophozoites were incubated with various concentrations of compounds for 24 h and trophozoites viability was determined using Trypan blue. Percentage amoebicidal activity was calculated by: [((RPMI cell count − cell count for sample)/RPMI cell count) × 100)]. The activities of solvents alone were negated from the activities of the compounds. The data is presented as the mean ± standard error (*: p < 0.05, **: p < 0.01, ***: p < 0.001 using student t-test; two tailed distribution).

Data set [1] concerns B. mandrillaris trophozoites. Nature of the data set: Amoebicidal assay against B. mandrillaris trophozoites (Trypan blue). The data set is classed as cell-based, Balamuthia mandrillaris. As to conditions: for EC50 / Concentration showing significant amoebicidal activity against B. mandrillaris: 24 h; for EC50: read-out: Half maximal effective concentration (EC50), B. mandrillaris; for Concentration showing significant amoebicidal activity against B. mandrillaris: compared to solvent control; for Amoebicidal activity against B. mandrillaris: summary in discussion, concentration not given. The procedure:
as §1
Figure 2 The amoebicidal activities of compounds against B. mandrillaris trophozoites. B. mandrillaris trophozoites were incubated with various concentrations of compounds for 24 h and trophozoites viability was determined using Trypan blue. Percentage amoebicidal activity was calculated by: [((RPMI cell count − cell count for sample)/RPMI cell count) × 100)]. The activities of solvents alone were negated from the activities of the compounds. The data is presented as the mean ± standard error (*: p < 0.05, **: p < 0.01, ***: p < 0.001 using student t-test; two tailed distribution).

Another data set relates to N. fowleri cysts. Nature of the data set: Excystation assay, N. fowleri cysts. The format is cell-based, Naegleria fowleri. As to conditions: for inhibition at 100 µM: Naegleria fowleri, read-out: Inhibition of excystation of N. fowleri. The procedure:
(§2) Briefly, 5 × 10^5 amoebae cysts (N. fowleri and B. mandrillaris cells) were incubated with 100 μM drugs and/or solvent in 24-well plates containing RPMI-1640 on HeLa monolayers at 37 °C and 5% CO2 until around 75% of the cysts in RPMI-1640 alone have excysted. The RPMI-1640 alone was used as a negative control while DMSO and ethanol were used as a solvent control and 100 μM miltefosine was used as positive control. Live trophozoites (amoebae that excysted) were then quantified by counting live (unstained) cells, after addition of 0.1% Trypan blue to each well, using a haemocytometer. Percentage inhibition is defined as: [(Number of trophozoites in untreated well − Number of trophozoites in treated well)/Number of trophozoites in untreated well)] × 100. The data are representative of the mean ± standard error of several independent experiments performed in duplicate.
(§3) Figure 3 (A) Inhibition of excystation of N. fowleri cysts. N. fowleri cysts were incubated with 100 μM drugs and/or solvent in 24-well plates containing RPMI-1640 on HeLa monolayers for 24 h and number of viable trophozoites were then enumerated. Percentage inhibition of excystation was calculated by: [((RPMI trophozoite cell count − trophozoite cell count for sample)/RPMI trophozoite cell count) × 100)]. The activities of solvents alone were negated from the activities of the compounds. The data is presented as the mean ± standard error (*: p ˂ 0.05, **: p < 0.01, ***: p < 0.001 using student t-test; two tailed distribution). (B) Inhibition of excystation of B. mandrillaris cysts. B. mandrillaris cysts were incubated with 100 μM drugs and/or solvent in 24-well plates containing RPMI-1640 on HeLa monolayers for 24 h and number of viable trophozoites were then enumerated. Percentage inhibition of excystation was calculated by: [((RPMI trophozoite cell count − trophozoite cell count for sample)/RPMI trophozoite cell count) × 100)]. The activities of solvents alone were negated from the activities of the compounds. The data is presented as the mean ± standard error (*: p ˂ 0.05, **: p < 0.01, ***: p < 0.001 using student t-test; two tailed distribution).

The subject of the next data set is B. mandrillaris cysts. Nature of the data set: Excystation assay, B. mandrillaris cysts. The data set is classed as cell-based. As to conditions: Balamuthia mandrillaris, read-out: Inhibition of excystation of B. mandrillaris. The procedure: as §2, §3
A further data set concerns HaCaT cells. The format is cell-based, human. The procedure: Cytotoxic effects of the drugs were determined as previously described^21. Briefly, the cytotoxic activity of the drugs was investigated against HaCaT cells. […] The LDH assay protocol is based on an enzymatic reaction, i.e., LDH released from the cell oxidizes lactate to generate NADH, which then reacts with water-soluble tetrazolium salt (WST) to generate a yellow color. The intensity of the generated color correlates directly with the number of lyzed cells. Following this, 1% Triton X-100 was added to the positive control well and incubated the plate for 60 min at 37 °C. For negative control, human cells were grown in RPMI alone well. Then, an equal amount of cells supernatant (comprising LDH enzyme) from each well was combined with equal amount of LDH kit reagents and cytotoxicity was determined in proportion to LDH released from human cells using a spectrophotometer at 490 nm. The percentage LDH released was determined as follows: [(Absorbance of sample − Absorbance of control)/(Absorbance for total LDH release − Absorbance of control)] × 100 = percentage cytotoxicity.
Figure 4 Cytotoxic effects of compounds against human cells are depicted. Various concentrations of compounds were incubated with human cells for 24 h at 37 °C and 5% CO2. RPMI alone was used as negative control and triton X-100 was used as positive control. Data are presented as the mean ± standard error of 2 experiments conducted in duplicates.

Details of data set [2]: method as in PMID 29206032, PMID 32548431. The conditions noted are these: ref [24],[25],[26]; cited from earlier work.
Where [3] appears, read: compared to solvent control, p < 0.05, 24 h.
Setting [4] is: trophozoites, 24 h, Trypan blue.
Where [5] appears, read: Balamuthia mandrillaris, trophozoites, Trypan blue.
Where [6] appears, read: 100 μM, after negating effects of solvent alone.
[7] abbreviates: LDH release, 24 h, concentration not given.

Where two headings read alike, the source gives them in different places.

Usually inhibition stands for the share of the control response that was lost under treatment.

Take `O=C(O)c1c(Cl)ccc2cc(Cl)cnc12` [Quinclorac, 3,7-Dichloro-8-quinolinecarboxylic acid]: the minimal effective concentration in the data set on N. fowleri trophozoites (setting [3]) is ≥ 25 µM. For the same compound, the results for the EC50 (in the data set on N. fowleri trophozoites (setting [4]); in data set [1] (setting [5])) were 102 µM and 297 µM, respectively. Also, the “Concentration showing significant amoebicidal activity against B. mandrillaris” value in data set [1] was 50 µM. Further, the inhibition at 100 µM in the data set on N. fowleri cysts (setting [6]) was determined as 30%; with B. mandrillaris cysts (setting [6]), 53%. In addition, the “Cytotoxicity against HaCaT cells” value in the data set on HaCaT cells (setting [7]) came to 6%.
On to `C[C@H]1O[C@H](O[C@H]2[C@H](O)[C@@H](O)[C@@H](O[C@H]3[C@H](O)[C@@H](O)C(O)O[C@@H]3CO)O[C@@H]2CO)[C@H](O)[C@@H](O)[C@@H]1N[C@H]1C=C(CO)[C@@H](O)[C@H](O)[C@H]1O` (stereo partly drawn) [Acarbose, (3R,4R,5S,6R)-5-[(2R,3R,4R,5S,6R)-5-[(2R,3R,4S,5S,6R)-3,4-dihydroxy-6-methyl-5-[[(1S,4R,5S,6S)-4,5,6-trihydroxy-3-(hydroxymethyl)cyclohex-2-en-1-yl]amino]oxan-2-yl]oxy-3,4-dihydroxy-6-(hydroxymethyl)oxan-2-yl]oxy-6-(hydroxymethyl)oxane-2,3,4-triol], for which the EC50 is 3.6 µM with N. fowleri trophozoites (24 h) and 80.8 µM in data set [1] (Balamuthia mandrillaris). Further, the minimal effective concentration in the data set with N. fowleri trophozoites (setting [3]) was ≥ 25 µM. In the data set on N. fowleri trophozoites, the “Amoebicidal activity against N. fowleri” value came out at 74%. The “Amoebicidal activity against B. mandrillaris” value in data set [1] was 60%. For the same compound, the inhibition at 100 µM in the data set with N. fowleri cysts (setting [6]) was 17%; with B. mandrillaris cysts (setting [6]) it was < 10%. For the same compound, in data set [2], the “BBB Permeability” value is “Negative”.
For the compound `CN1C(=O)[C@](O)(Cc2cccc(O)c2)N(C)C(=O)[C@@H]1Cc1c[nH]c2cccc([N+](=O)[O-])c12` [Thaxtomin A, (3R,6S)-3-hydroxy-3-[(3-hydroxyphenyl)methyl]-1,4-dimethyl-6-[(4-nitro-1H-indol-3-yl)methyl]piperazine-2,5-dione], the EC50 worked out at 94.7 µM with N. fowleri trophozoites (24 h) and 39 µM in data set [1] (Balamuthia mandrillaris). Besides, in the data set with N. fowleri trophozoites (setting [3]), the “Lowest concentration showing significant amoebicidal activity against N. fowleri” value is “did not show anti-N. fowleri effects at any concentration tested”. Also, the inhibition at 100 µM was 22% in the data set on N. fowleri cysts and < 10% in the data set with B. mandrillaris cysts. The “Cytotoxicity against HaCaT cells” value with HaCaT cells (setting [7]) amounted to 4%.
Cellulase: the “Lowest concentration showing significant amoebicidal activity against N. fowleri” value with N. fowleri trophozoites (setting [3]) is “did not show anti-N. fowleri effects at any concentration tested”. In data set [1], the “Concentration showing significant amoebicidal activity against B. mandrillaris” value amounted to 100 µM. The EC50 in data set [1] (trophozoites, Trypan blue) was found to be 106 µM. Further, in the data set on N. fowleri cysts (setting [6]), the “Inhibition of excystation of N. fowleri” value was found to be 39%. In addition, in the data set on HaCaT cells, the “Cytotoxicity against HaCaT cells” value was “did not exhibit any cytotoxicity”.
`OC1C(O)C(O)C(O)C(O)C1O` (stereo not shown) [Inositol, cyclohexane-1,2,3,4,5,6-hexol]: the minimal effective concentration in the data set with N. fowleri trophozoites (setting [3]) is ≥ 6.25 µM. Besides, the EC50 in the data set on N. fowleri trophozoites (setting [4]) was determined as 48.9 µM; in data set [1] (setting [5]) it was 124 µM. Moreover, the “Concentration showing significant amoebicidal activity against B. mandrillaris” value in data set [1] is recorded as 6.25 µM. In addition, the inhibition at 100 µM in the data set with N. fowleri cysts (setting [6]) is 12%. Further, the “Cytotoxicity against HaCaT cells” value in the data set with HaCaT cells (setting [7]) is 4%. The “BBB Permeability” value in data set [2] is recorded as “Present in brain”.
Consider `N#Cc1c(Cl)cccc1Cl` [Dichlobenil (2,6-DNBT), 2,6-dichlorobenzonitrile], for which the EC50 was 24.2 µM in the data set on N. fowleri trophozoites (24 h) and 39.6 µM in data set [1] (Balamuthia mandrillaris). The minimal effective concentration with N. fowleri trophozoites (24 h) is ≥ 6.25 µM. In the data set on N. fowleri trophozoites, the “Amoebicidal activity against N. fowleri” value was found to be 69%. In addition, the “Concentration showing significant amoebicidal activity against B. mandrillaris” value in data set [1] came out at 25 µM. In addition, in data set [1], the “Amoebicidal activity against B. mandrillaris” value came to 60%. Also, the inhibition at 100 µM with N. fowleri cysts and with B. mandrillaris cysts was 45% in each case. For the same compound, the “Cytotoxicity against HaCaT cells” value with HaCaT cells (human, 24 h) is reported as 3%.
In the case of `CCNc1nc(Cl)nc(NC(C)(C)C)n1` [Terbuthylazine, 2-N-tert-butyl-6-chloro-4-N-ethyl-1,3,5-triazine-2,4-diamine], in the data set on N. fowleri trophozoites (setting [3]), the minimal effective concentration is ≥ 3.13 µM. Besides, the EC50 was 7.5 µM with N. fowleri trophozoites (setting [4]) and 62.5 µM in data set [1] (setting [5]). Besides, the “Amoebicidal activity against N. fowleri” value with N. fowleri trophozoites amounted to 63%. Moreover, in data set [1], the “Amoebicidal activity against B. mandrillaris” value amounted to 61%. Further, the inhibition at 100 µM was 29% in the data set with N. fowleri cysts (setting [6]) and < 10% with B. mandrillaris cysts (setting [6]). For the same compound, in the data set with HaCaT cells (setting [7]), the “Cytotoxicity against HaCaT cells” value came to 2%.
Consider `CN(C)C(=N)NC(=N)N` [Metformin, 1-carbamimidamido-N,N-dimethylmethanimidamide], for which the EC50 in the data set with N. fowleri trophozoites (24 h) is 134 µM. Also, in the data set with N. fowleri trophozoites (setting [3]), the minimal effective concentration was determined as 12.5 µM. The “Inhibition of excystation of N. fowleri” value in the data set with N. fowleri cysts (setting [6]) was “did not inhibit excystation”.
Take `Cc1ccc2c(c1)C(Nc1nc(N)nc(C(C)F)n1)C(C)C2` (stereo not shown) [Indaziflam, N-(2,3-dihydro-2,6-dimethyl-1H-inden-1-yl)-6-(1-fluoroethyl)-1,3,5-triazine-2,4-diamine]: in the data set with N. fowleri trophozoites (24 h), the EC50 was found to be 53.7 µM and the minimal effective concentration came to 12.5 µM. In the data set on N. fowleri trophozoites, the “Amoebicidal activity against N. fowleri” value is reported as 62%. In data set [1] (Balamuthia mandrillaris), the EC50 came out at 99.8 µM. Also, in data set [1], the “Concentration showing significant amoebicidal activity against B. mandrillaris” value worked out at 50 µM and the “Amoebicidal activity against B. mandrillaris” value is listed as 52%. Also, the inhibition at 100 µM with N. fowleri cysts was 68%. The inhibition at 100 µM with B. mandrillaris cysts stood at 52%. In addition, the “Cytotoxicity against HaCaT cells” value with HaCaT cells (setting [7]) was determined as 4%.
For `O=C(O)/C=C/c1ccccc1` [Trans-cinnamic acid, (E)-3-phenylprop-2-enoic acid], in the data set on N. fowleri trophozoites (setting [3]), the minimal effective concentration is ≥ 3.13 µM. The EC50 in the data set with N. fowleri trophozoites (setting [4]) was determined as 9.4 µM. Moreover, the inhibition at 100 µM worked out at 59% in the data set on N. fowleri cysts (setting [6]) and 32% in the data set on B. mandrillaris cysts (setting [6]). Besides, the “Cytotoxicity against HaCaT cells” value in the data set on HaCaT cells (setting [7]) was 8%.

These data come from publication PMC9220410, “Antiamoebic Properties of Laboratory and Clinically Used Drugs against Naegleria fowleri and Balamuthia mandrillaris” (Antibiotics, 2022).
